Experimental data reported in patent US11471478B2, “Use of cyclodextrins in diseases and disorders involving phospholipid dysregulation” (priority 2017, dated 2022).
Marks after values point to notes of the source that are not given here.

Legend:
BBB = conditions: cited from earlier work
[1] = Randomized n-of-1 human PK/PD study: FPLC of morning urine after oral HP-α-CD preparations; conditions: in vivo
Protocol: Urine samples (5-10 mL) were pipetted into culture tubes and then frozen for 30 min and samples were then lyophilized for 48-72 h, sealed and stored at −80° C. Phospholipids were extracted from urine samples after reconstitution, with chloroform (CHCl3) and methanol (3:1), and filtered through glass wool. The eluent was washed with 1 M KCl with 0.01% sodium azide. The wash was centrifuged at 3000 g for 30 min and CHCl3 layer transferred to fresh tube and evaporated at 60° C. under nitrogen. Phospholipid extracts and standards were digested in 10 M H2SO4 with 0.16 Ca(NO3)2 and 30% H2O2 and heated for 25 min at 180° C. […] These were vortexed and heated at 35° C. for 30 min. All samples were analyzed in triplicate.
This was coupled to a Beckman Ultra SI column using an isocratic elution profile along a mobile phase of acetonitrile-methanol-phosphoric acid solvent (100:10:1.8) at a flow rate of 1.0 mL/min at RT. The lyophilized samples were resuspended in a hexane-propanol-phenolphthalene mix (3:1:0.1) before injection.
The standard curves (FIG. 43) were generated using DiPalmitoyl-PC in the range of 0.65-32 μM phosphate equivalence. Percentage efficiency of isolation was determined through a comparison of the extraction recovery of total phosphate from normal urine spiked with known amount of synthetic PL with a parallel PL sample digested and assayed without extraction.

[2] = system: MDA-MB 231 and MCF-7 human breast epithelial cell lines; test: Wound healing / gap closure migration assay; format: cell-based; conditions: for inhibition of migration, 1 mM HP-α-CD versus 2 mM HP-β-CD: MDA-MB-231 and MCF-7
Protocol: Published results have shown that β-CD inhibits human MDA-MB 231 cell migration (Guerra F S, Sampaio LdS, et al. (2016) Translational Medicine Communications 1:3). This inhibition was attributed to the ability of β-CD to “deplete cholesterol”. β-CD, however, depletes also phospholipids. […] Cells were cultured in 24-well culture plates (Cytoselect CBA-120, 0.9 mm wound healing/gap closure migration assay) for 24 h with wound healing insert in place. Cells were then treated for 2 h with HP-β-CD, HP-α-CD, or control. Protocol: Warm up the 24-well plate (CBA-120, Cell BioLabs Inc.) with 0.9 mm CytoSelect Wound Healing Inserts at room temperature for 10 min. Using sterile forceps, orient the desired number of inserts in the plate wells with their “wound field” aligned in the same direction. […] Add 500 μL of cell suspension to each well by carefully inserting the pipette tip through the open end at the top of the insert. For optimal cell dispersion, add 250 μL of cell suspension to either side of the open ends at the top of the insert. Incubate cells in a cell culture incubator for 12-24 hours. Carefully remove the insert from the well to begin the wound healing assay. Use sterile forceps to grab and lift the insert slowly from the plate well. Slowly aspirate and discard the media from the wells. Wash wells with media to remove dead cells and debris. Finally, add media to wells to keep cells hydrated. Repeat wash if wells still have debris or unattached cells. When washing is complete, add media with FBS and/or compounds to continue cell culture and wound healing process. Agents that inhibit or stimulate cell migration can be added directly to the wells. Incubate cells in a cell culture incubator (2 hours) and then wash cells with PBS and then add fresh media without compounds. Incubate 12-24 hours before wash and fixing. Remove the fixation solution and add 400 μL of Cell Stain Solution to each well. Allow the stain to incubate with the cells for 15 minutes at room temperature. Aspirate and discard the solution. Carefully wash each stained well 3× with deionized water. Discard washes and allow cells to dry at room temperature. Cells that migrated into the wounded area or protruded from the border of the wound were visualized and photographed under an inverted microscope. Determine the surface area of the defined wound area: Total Surface Area=0.9 mm×length. Determine the surface area of the migrated cells into the wound area: Migrated Cell Surface Area=length of cell migration (mm)×2× length. Percent Closure (%)=Migrated Cell Surface Area/Total Surface Area×100 (see FIG. 36)

Npc1−/− mice = conditions: mouse, in vivo; cited from earlier work
HTT mice = HTT mice (R6/2), bodyweight; format: in vivo; conditions: 8 wk old HTT mice, over 5 wk
Text: (§1) ALS mice SOD1 G93A strain (B6SJL-Tg(SOD1*G93A)1Gur/J strain #002726, 10 wk old, and HTT mice (B6CBA-Tg(HDexon1)62Gpb/33; strain #006494 HTT: R6/2, 8 wk old), were obtained from Jackson Laboratories (Bar Harbor, Me.), housed in standard housing with controlled ambient conditions and provided with water and food at libitum.

[3] = system: MDA-MB-231 breast cancer cells; test: NSG mice injected with human MDA-MB-231 breast cancer cells; format: in vivo
Protocol: NSG mice (NOD.Cg-Prkdcscid Il2rgtm1Wjl/SzJ, strain #005557 (10 wk old) were obtained from Jackson Laboratories (Bar Harbor, Me.), housed in isolated quarters, and fed with autoclaved water and food.
An MDA-MB-231 cell line was obtained (ATCC) and kept frozen in liquid nitrogen. Upon start of culture, cells were thawed (1.5 min in 37° C. water) and transferred to DMEM/F-12 supplemented with 5% FBS, 2 mM L-glutamine, 1 mM sodium pyruvate, and 0.02 mM non-essential amino acids. Cells were grown to several millions in 60 mm dishes at 70-80% confluence. Before injection, cells were briefly rinsed twice in PBS followed by Versene (EDTA, Invitrogen) and placed on ice with excess phosphate-buffered saline and phenol red-free matrigel basement membrane extract to a concentration of about 15 mg/mL matrigel. 100 μL cell mixture (20,000 cells or saline only) were injected into the lactiferous duct of the 3rd or 4th mammary glands under brief isofluorane anesthesia. Groups of 15 mice each were injected IP with 800 mg/kg of HP-α-CD, HP-β-CD per week (over four days, Mon, Tue, Thu, Fri), or saline (control) for six weeks. Size of the primary tumor was measured weekly.
Breast tissue were palpated and measured twice a week with a micro-metric analytical device scaled to 1 mm precision. Mice were weighed weekly on a digital scale (0.1 g precision).
At the end of the study period, mice were anaesthetized with isofluorane with 1× phosphate-buffered saline (PBS) and subsequently with 4% formaldehyde in PBS. Tissue from lung and liver were removed and fixated in formalin for microscopic examination. Metastases were visualized and counted by tissue embedding in paraffin and sectioning with immunohistochemistry and histological stain (H&E) and immunostained with anti-HLA antibody. After blocking for 1 h with BSA (5%, frac V), the anti-HLA was incubated at 4° C. overnight, washed for 1 h in PBS, then incubated with biotinylated anti-mouse IgG for 1 h at room temperature. After washing with PBS, metastases were detected on the slide using Envision (Dako).
After blood collection, whole blood samples were centrifuged (at 10,000 m/s^2 for 15 min and then at 100,000 m/s^2 for 10 min), and plasma was isolated. The samples were stored at −80° C. until analysis.
Prior to analysis (30 min), samples and assay reagents were equilibrated to room temperature. The samples were run at a 1:4 dilution and quantified in duplicate using a multi-plex mouse panel for quantification of IL-1β, IL-18, IL-6, IL-8, IL-17A, and GM-CSF (Bio-Plex Pro assays, Bio-Rad Laboratories) on a Luminex Bio-Plex 200 System (Bio-Rad Laboratories).

[4] = system: heterogeneous human epithelial colorectal adenocarcinoma (Caco-2) cells; conditions: cited from earlier work
whole blood = conditions: cited from earlier work
erythrocytes = conditions: read-out: hemolytic IC50; cited from earlier work
SOD1 mice = test: ALS mice SOD1 G93A, bodyweight; format: in vivo; conditions: untreated mice began to lose bodyweight after 21 days
Text: as §1

SwN2a cells = conditions: cited from earlier work
mice/rats = conditions: in vivo; cited from earlier work
keratinocytes = conditions: cited from earlier work
[5] = i.v.; cited from earlier work
rats = conditions: rat, in vivo, iv; cited from earlier work
[6] = system: fibroblasts of lysosomal storage diseases; conditions: about 6 mM α-CD, about 8 mM HP-β-CD; cited from earlier work
[7] = system: HeLa cells transfected with α-synuclein; conditions: 20 mM for 1 hr; cited from earlier work
[8] = biological target: T1, breast cancer resistance protein (BCRP) (Homo sapiens, UniProt Q9UNQ0); conditions: cited from earlier work
T1 sequence (Q9UNQ0 1-655): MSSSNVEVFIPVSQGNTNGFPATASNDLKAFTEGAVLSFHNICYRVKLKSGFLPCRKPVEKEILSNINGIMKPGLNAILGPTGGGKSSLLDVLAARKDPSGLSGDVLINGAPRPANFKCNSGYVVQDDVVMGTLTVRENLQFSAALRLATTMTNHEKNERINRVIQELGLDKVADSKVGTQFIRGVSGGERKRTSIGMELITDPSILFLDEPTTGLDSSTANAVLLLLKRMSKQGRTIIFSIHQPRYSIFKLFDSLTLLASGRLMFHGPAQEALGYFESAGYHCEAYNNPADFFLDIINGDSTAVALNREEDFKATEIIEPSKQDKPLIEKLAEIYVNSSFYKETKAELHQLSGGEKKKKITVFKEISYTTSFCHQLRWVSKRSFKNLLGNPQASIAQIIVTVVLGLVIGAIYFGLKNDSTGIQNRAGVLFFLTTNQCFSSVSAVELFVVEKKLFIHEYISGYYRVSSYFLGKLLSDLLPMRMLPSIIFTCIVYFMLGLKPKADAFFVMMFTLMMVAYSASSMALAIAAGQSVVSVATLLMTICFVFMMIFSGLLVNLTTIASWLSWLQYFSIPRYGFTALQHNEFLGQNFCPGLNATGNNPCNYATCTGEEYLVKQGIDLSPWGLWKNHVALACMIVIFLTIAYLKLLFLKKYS

[9] = IP 800 mg/kg per week for six weeks
[10] = u-statistics for multivariate data

2-hydroxypropyl-alpha-cyclodextrin [HP-α-CD]
BBB breakdown (BBB): 2.5 mM
toxicity on the BBB model (BBB): similarly safe
lysophospholipids in urine (fractions 9 and 10, LPC) [1]: higher than in all other groups
cell migration / wound closure, concentration dependence ([2]; 2 h treatment, MDA-MB 231 and MCF-7): migration decreased with higher concentration
effect on migration, HP-α-CD versus HP-β-CD ([2]; MDA-MB 231 and MCF-7): stronger effect on migration than HP-β-CD
effect on migration, HP-α-CD versus HP-β-CD ([2]; MDA-MB 231 and MCF-7, listed as HPαCD): twice as effective as HP-β-CD
inhibition of migration, 1 mM HP-α-CD versus 2 mM HP-β-CD [2]: superior to inhibition at 2 mM HP-β-CD
inhibition of migration, 1 mM HP-α-CD versus 2 mM HP-β-CD ([2]; listed as HPαCD): more effective than 2 mM HPβCD
cholesterol accumulation (Npc1−/− mice): reduces cholesterol accumulation, albeit not as effectively as HP-β-CD
decline in bodyweight (HTT mice): reduced decline in bodyweight
Tumor volume, median [3, 9]: 356 mm3
effect on tumor volume [3, 9]: more effective than HP-β-CD
plasma cytokines (IL-1β, IL-18, IL-6, IL-8, IL-17A, GM-CSF) versus Vehicle ([3]; conventional 0.05 level): not significant only in IL-6
mice that did not develop lung metastases ([3]; groups of 15 mice): 5 mice
mice who died ([3]; groups of 15 mice): one
comprehensive analysis of all six plasma cytokine markers [3, 10]: more effective than HP-β-CD
lung and liver metastases overall [3, 10]: more effective
cytotoxicity [4]: less cytotoxic than α-CD
whole blood TD50 (whole blood): 360 mM/L
IC50 (erythrocytes): > 100 mM
bodyweight growth (SOD1 mice): continued to grow for at least two more weeks
level of membrane cholesterol (SwN2a cells): reduced
levels of Aβ42 (SwN2a cells): dramatically lowered

CN1CCCC1c1cccnc1 (stereo not shown) [nicotine]
transported through the BBB (BBB; after 2 h of incubation, in vitro): 96%

OC[C@H]1O[C@@H]2O[C@H]3[C@H](O)[C@@H](O)[C@@H](O[C@H]4[C@H](O)[C@@H](O)[C@@H](O[C@H]5[C@H](O)[C@@H](O)[C@@H](O[C@H]6[C@H](O)[C@@H](O)[C@@H](O[C@H]7[C@H](O)[C@@H](O)[C@@H](O[C@H]8[C@H](O)[C@@H](O)[C@@H](O[C@H]1[C@H](O)[C@H]2O)O[C@@H]8CO)O[C@@H]7CO)O[C@@H]6CO)O[C@@H]5CO)O[C@@H]4CO)O[C@@H]3CO [β-CD, beta-cyclodextrin, reference compound]
Transport across BBB (BBB; 2 h, 1 mM): 26.7 (1 mM) %
toxicity on the BBB model (BBB): similarly safe
LD50 i.v./i.p. in mice/rats (mice/rats): 0.8/1.0 ^4) g/kg
caspase-dependent apoptotic cell death (keratinocytes): induces caspase-dependent apoptotic cell death
whole blood TD50 (whole blood): 3.6 mM/L
half-life (t1/2) after i.v. in rats [5]: 20 min
i.v. toxicity, 1 g/kg daily (rats): all died ≤ 4 d

methyl-β-cyclodextrin [M-β-CD]
reduction of lysosomal storage [6]: most effective cyclodextrin
co-location of α-synuclein with the cell membrane [7]: dramatically reduced
decrease in activity of BCRP [8]: 40%
